From patent publication US5747239A, “Synthetic peptides specific for the detection of antibodies to HCV, diagnosis of HCV infection and preventions thereof as vaccines” (United Biomedical, Inc., priority 1994, dated 1998)

Key:
Assay type in all cases: binding, human
[1] = tested on: antibodies to HCV; assay: Envelope/NS-1 peptide ELISA, anti-HCV positive plasmapheresis donors with elevated ALT (Panel III); details: envelope/NS-1 peptides; Panel III (17 samples); peptide 254B as a standard
Description: To select a panel of samples with reactivity to peptides from the envelope/NS-1 region, 97 such samples from anti-HCV positive plasmapheresis donors with elevated ALT levels were tested with peptide 254B. […] 17 samples with the greatest reactivity with peptide 254B were chosen to form a third panel (Panel III) to screen for the immunoreactivity of the other 20 peptides from the envelope/NS-1 region. The individual absorbance values of each of the 17 samples on the four peptides with the greatest reactivity, i.e. 255C (pep7), 254B (pep8), 247B (pep9), and 246D (pep10), are listed in Table 8b.

[2] = tested on: antibodies to HCV; assay: Peptide ELISA for relative immunoreactivity, 8 member HCV serum panel (Panel I); details: for absorbance of the one reactive panel member: reactive with only one of eight
Description: As an example to illustrate how relative (%) immunoreactivity for HCV synthetic peptides is measured, wells of 96-well plates are coated for 1 hour at 37° C., with each of the following peptides: IIH, V, VIIIE and pep11 at 5 ug/mL at 100 uL per well in 10 mM NaHCO3 buffer, pH 9.5. The peptide coated wells were then incubated with 250 uL of 3% by weight of gelatin in PBS in 37° C. for 1 hour to block non-specificprotein binding sites, followed by three washes with PBS containing 0.05% by volume of TWEEN 20 and then dried. The test specimens containing a panel of eight well-characterized HCV antibody positive patient sera were diluted with PBS containing 20% by volume normal goat serum, 1% by weight gelatin and 0.05% by volume TWEEN 20 at dilutions of 1:20 volume to volume, respectively. 200 uL of the diluted specimens were added to each of the wells and allowed to react for 15 minutes at 37° C.
The wells were then washed six times with 0.05% by volume TWEEN 20 in PBS in order to remove unbound antibodies. Horseradish peroxidase conjugated goat anti-human IgG was used as a second antibody tracer to bind with the HCV antibody-peptide antigen complex formed in positive wells. 100 uL of peroxidase labeled goat anti-human IgG at a dilution of 1:1800 in 1% by volume normal goat serum, 0.05% by volume TWEEN 20 in PBS was added to each well and incubated at 37° C. for another 15 minutes.
The wells were washed six times with 0.05% by volume TWEEN 20 PBS to remove unbound antibody and reacted with 100 uL of the substrate mixture containing 0.04% by weight orthophenylenediamine (OPD) and 0.12% by volume hydrogen peroxide in sodium citrate buffer, pH 5.0.
This substrate mixture was used to detect the peroxidase label by forming a colored product. Reactions were stopped by the addition of 100 uL of 1.0M H2 SO4 and the A492 mm measured. Results of relative immunoreactivity for each of the peptides obtained from this study are shown in Table A using peptide II H as the reference.

[3] = tested on: antibodies to HCV; assay: NS-1 peptide ELISA, Panel II (asymptomatic individuals, mainland China and Taiwan)
Description: Wells of 96-well plates were coated for 1 hour at 37° C. with each of the 16 peptides (designated as peptides 241A-C, 231A-E, 232A-D, 233C, 234A-C), synthesized according to sequences derived from the NS-1 region (Table 3A), at 5 ug/mL at 100 uL per well in 10 mM NaHCO3 buffer, pH 9.5. Each peptide's immunoreactivity was measured as previously described (see Example 1), using an 8 member serum panel (Panel I).
A panel of serum samples from individuals coming from regions in which hepatitis C is endemic, namely mainland China and Taiwan, were tested for evidence of reactivity to these NS-1 protein derived peptides. Twenty-four samples were chosen from individuals who had no recognizable symptoms of non-A, non-B hepatitis and for whom the peptide based HCV EIA, Format C, as described in Example 11, was nonreactive. Seven of the 24 samples (29%) were reactive against one or more peptides from the NS-1 region, indicative of the presence of long term protective antibodies responsive to this region. This 7 member panel (designated as Panel II, CH1-CH7) was used to further characterize these NS-1 peptides for their immunoreactivity.
The peptide with the greatest reactivity against the serum Panel II again was pep1 (designated 231c in Table 3A). Using this peptide as a standard, the relative immunoreactivity for each of the other 15 peptides from the NS-1 region are calculated in Table 3A.

[4] = NS-5 peptides (Table 12), Panel I, pep11 as a standard
[5] = NS-3 peptides (Table 4A), Panel I, relative to pep3 (279A)
[6] = capsid peptides, Panel I, relative to VIIIE, coated at 5, 1 and 0.2 μg/mL
[7] = Arima clone 1 peptides, relative to peptide VIIIE

CGSVFLIGQLFTFSPRRHWTTQGCNCSIYPGHITGHRMAWDMMMNWSPTA [254C]
% Relative Immunoreactivity [1]: 16.7%

CNESLNTGWLAGLIYQHKFNSSGCPERLASC [246B]
% Relative Immunoreactivity [1]: 19.8%

CQVPSPEFFTELDGVRLHRFAPPCKPLLREEVSFRVGLHEYPVGSQLPCEPEPD [311C]
% IP [2, 4]: 16.8%

CVREGNVSRCWVAMTPTVATRDGKLPATQLRRHIDLLVGSATLC [244B]
% Relative Immunoreactivity [1]: 5.8%

CWVAMTPIVATRDGKLPATQLRRHIDLLVGSATLC [244A]
% Relative Immunoreactivity [1]: 3.8%

FTDNSSPPVVPQSFQVAHLHAPTGSGKSTKPAAYA [278B]
% IP [2, 5]: 1.4%

GPRLGVRATRKTSERSQPRGRR [VIIIA]
% Relative Immunoreactivity [2, 6]: 32.7%

IPKVRRPEGRTWAQPGYPWPLYGNEGCGWAGWLLSPRGSRPSWGPTDPRRRSRNLG [IXD]
% Relative Immunoreactivity [2, 6]: 58.9%

KEKEKTATNNPGKNKKPRVGRIKNWNREGRKDAYQIRKRR [40 mer, reference compound]
% Relative Immunoreactivity [2, 7]: 21.1%

KKQRRYKEKEKTATNNPGKNKKPRVGRIKNWNREGRKDAYQIRKRR (NDTHKKQRRYKEKEKTATNNPGKNKKPRVGRIKNWNREGRKDAYQIRKRR) [50 mer, reference compound]
% Relative Immunoreactivity [2, 7]: 17.8%

KQNIQLINTNGSWHINSTALNCNESLNTGWLAGLIYQHKFNSSGCPERLASC [246E]
% Relative Immunoreactivity [1]: 10.5%

LRRLHQWISSECTTPCSGSWLRDIWDWICEVLSDFKTWLKAKLMPQL [314C]
% IP [2, 4]: 14.2%

LWRVSAEEYVEIRQVGDFHYVIGMTTDNLKCPCQVPSP [312C]
% IP [2, 4]: 40.4%

PPLGNWFGCTWMNSTGFTKVCGAPPC [232A]
% IP ([3]; NS-1 peptides, Panel II (CH1-CH7), relative to pep1 (231C)): 88.7%
A492 nm by EIA (mA) ([3]; Panel II sample CH-1): 202 mA
A492 nm by EIA (mA) ([3]; Panel II sample CH-2): 261 mA
A492 nm by EIA (mA) ([3]; Panel II sample CH-3): 935 mA
A492 nm by EIA (mA) ([3]; Panel II sample CH-4): 1498 mA
A492 nm by EIA (mA) ([3]; Panel II sample CH-5): 621 mA
A492 nm by EIA (mA) ([3]; Panel II sample CH-6): 1128 mA
A492 nm by EIA (mA) ([3]; Panel II sample CH-7): 552 mA

PVVPQSFQVAHLHAPTGSGKSTKVPAAYA [278A]
% IP [2, 5]: 8.2%

PVVPQSFQVAHLHAPTGSGKSTKVPAAYAAQGYKVLVLNPS [272A]
% IP [2, 5]: 2.1%

RTITTGSPITYSTYGKFLADGGCSGGAYDIIICDECHSTDATSILGIGTVLDQAETAGARLVVLATATPPGSVTVPHPNIEEVALSTTGEIPFYGKAIPLEVIKGGRHLIFCHSKKKCDEL [261F]
absorbance of the one reactive panel member ([2]; Panel I): 269 mA

SECTTPCSGSWLRDIWDWICEVLSDFKTWLKAKLMPQL [314B]
% IP [2, 4]: 11.6%

TNDCPNSSIVYEAHDAILHTPGCVPCVREGNVSRC [255A]
% Relative Immunoreactivity [1]: 9.8%

TWAQPGYPWPLYGNEGCGWAGWLLSPRGSRPSWGPTDPRRRSRNLG [IXC]
% Relative Immunoreactivity [2, 6]: 57.9%

VGGVYLLPRRGPRLGVRATRKTSERSQPRGRR [VIIIB]
% Relative Immunoreactivity [2, 6]: 48.9%

B1: KKGEASNGEAENDTHKKQRRYKEKEKTATNNPGKNKKPRVGRIKNWNREGRKDAYQIRKRR (peptide)
peptide: KKGEASNGEAENDTHKKQRRYKEKEKTATNNPGKNKKPRVGRIKNWNREGRKDAYQIRKRR
% Relative Immunoreactivity [2, 7]: 20.7%

B2: GRRQPIPKVRRPEGRTWAQPGYPWPLYGNEGCGWAGWLLSPRGSRPSWGPTDPRRRSRNLG (peptide)
peptide: GRRQPIPKVRRPEGRTWAQPGYPWPLYGNEGCGWAGWLLSPRGSRPSWGPTDPRRRSRNLG
% Relative Immunoreactivity [2, 6]: 50.2%

B3: GGAYDIIICDECHSTDATSILGIGTVLDQAETAGARLVVLATATPPGSVTVPHPNIEEVALSTTGEIPFYGKAIPLEVIKGGRHLIFCHSKKKCDEL (peptide)
chain: GGAYDIIICDECHSTDATSILGIGTVLDQAETAGARLVVLATATPPGSVTVPHPNIEEVALSTTGEIPFYGKAIPLEVIKGGRHLIFCHSKKKCDEL
absorbance of the one reactive panel member ([2]; Panel I): 307 mA

B4: AEEDEREISVPAEILRKSRRFAQALPVWARPDYNPPLVETWKKPDYEPPVVHGCPLPPPKSPPVPPPRKKRT (peptide)
chain: AEEDEREISVPAEILRKSRRFAQALPVWARPDYNPPLVETWKKPDYEPPVVHGCPLPPPKSPPVPPPRKKRT
% IP [2, 4]: 97.2%
